How the values were obtained:
Type in all cases: in vivo
Male CFLP mice = assay: Platelet aggregation inhibition activity, response to intravenous collagen; conditions: oral dose two hours before intravenous collagen 400 µg/kg; blood platelet concentration 30 sec after collagen; Aspirin 600(108), Example 8 2.5 (1) µmol(mg)/kg p.o.
Protocol: Male CFLP mice (ca 20 g, n=8) were dosed orally with compound or vehicle (controls) after an overnight fast. Two hours later each mouse received an intravenous dose of collagen (400 µg/kg, pH 6-6.6). Exactly 30 sec after injection of collagen, each mouse was placed in a chamber of C02 until respiration ceased. […] Each concentration was expressed as a per cent of that obtained in a tail blood sample taken immediately before injection of collagen.

Female CFLP mice [1] = assay: Effect on energy expenditure and food intake of mice; conditions: 19.5-26.3 mg/kg p.o. (per compound, see Dose column); for Mean Food Intake: percentage of mean food intake of mice dosed with water, over 21 hours after a single oral dose; for Mean Energy Expenditure (0-3 h) / Mean Energy Expenditure (0-21 h): percentage of mean rate of energy expenditure of mice dosed with water, single oral dose, 12 mice; for Mean Energy Expenditure (0-3 h): 0-3 h after dosing; for Mean Energy Expenditure (0-21 h): 0-21 h after dosing
Protocol: The compounds were dissolved in water by addition of one mole of hydrochloric acid per mole of compound and these solutions were administered orally to each of 12 mice. A further 12 mice were dosed orally with water. The mice were placed in boxes through which air was drawn and the oxygen content of the air leaving the boxes was measured. The energy expenditure of the mice was calculated for 21 hours after dosing from the volume of air leaving the boxes and its oxygen content, following the principles described by J.B. de V. Weir, J. Ph^ysiol. (London) 109, 1-9, (1949). The food intake of the mice was measured over this same period of 21 hours. The results are expressed as a percentage of the mean food intake or rate of energy expenditure of the mice dosed with water.

Female CFLP mice [2] = assay: Hypoglycaemic activity, subcutaneous glucose load in fasted mice; conditions: oral dose 1.0-12.5 μmol/kg (per compound, see Dose column), 30 minutes before glucose 1 g/kg subcutaneously; area over 2 hours compared with control mice given water; mice fasted 24 hours
Protocol: Female CFLP mice, weighing approximately 25 g, were fasted for 24 hours prior to the study. The compounds under study were administered orally as an aqueous solution to each of 8 mice. 30 minutes later a blood sample (20 µℓ) was obtained from the tail for the analysis of blood glucose. Immediately after taking this blood sample, glucose (1 g/kg body weight) was administered subcutaneously to each mouse. 8 mice were given water as a control. Blood samples were then obtained from each mouse at 30-minute intervals for 120 minutes.
Compounds that produced a significant (P<0.05) reduction of blood glucose, compared with control mice given water, at any time interval , were considered active. The area under the blood glucose curve over the 2 hour period after the administration of the glucose was calculated for each compound and compared with the value for control animals.

| SMILES | % Inhibition of response to collagen (Male CFLP mice) | Mean Food Intake (Female CFLP mice [1]) [percentage] | Mean Energy Expenditure (0-3 h) (Female CFLP mice [1]) [percentage] | Mean Energy Expenditure (0-21 h) (Female CFLP mice [1]) [percentage] | % Reduction in area under Blood glucose curve (Female CFLP mice [2]) [%] |
| --- | --- | --- | --- | --- | --- |
| CC(=O)Oc1ccccc1C(=O)O [Aspirin, reference compound] | 38 p<0.05% |  |  |  |  |
| CC(Cc1ccc(NS(C)(=O)=O)cc1)NCC(O)c1ccccc1 (centres unmarked) [Example 1, N-(2-(4-Methylsulphonylaminophenyl)-1-methylethyl]-2-hydroxy-2-phenylethanamine] |  | 80 | 130 | 95 | 24.7 |
| CC(Cc1ccc(NS(C)(=O)=O)cc1)NCC(O)c1cccc(C(F)(F)F)c1 (centres unmarked) [Example 2, N-[2-(4-Methylsulphonylaminophenyl)-1-methylethyl]-2-hydroxy-2-(3-trifluoromethylphenyl)ethanamine] |  | 99 | 142 | 102 |  |
| CCOC(=O)Nc1ccc(CC(C)NCC(O)c2cccc(C(F)(F)F)c2)cc1 (centres unmarked) [Example 3, N-[2-(4-Ethoxycarbonylaminophenyl)-1-methylethyl]-2-hydroxy-2-(3-trifluoromethylphenyl)ethanamine] |  | 76 | 139 | 121 |  |
| CC(=O)Nc1ccc(CC(C)NCC(O)c2cccc(C(F)(F)F)c2)cc1 (centres unmarked) [Example 4, N-(2-(4-Acetylaminophenyl)-1-methylethyl)-2-hydroxy-2-(3-trifluoromethylphenyl)ethanamine] |  | 72 | 151 | 115 | 15.9 |
| CNC(=O)Nc1ccc(CC(C)NCC(O)c2cccc(C(F)(F)F)c2)cc1 (centres unmarked) [Example 5, N-[2-(4-Methylaminocarbonylaminophenyl)-1-methylethyl]-2-hydroy-2-(3-trifluoromethylphenyl)ethanamine] |  | 72 | 159 | 121 |  |
| CCNc1ccc(CC(C)NCC(O)c2cccc(C(F)(F)F)c2)cc1 (centres unmarked) [Example 6, N-[2-(4-Ethylaminophenyl)-1-methylethyl]-2-hydroxy-2-(3-trifluoromethvlphenvl)ethanamine] |  | 108 | 169 | 128 |  |
| CC(Cc1ccc(N)cc1)NCC(O)c1cccc(C(F)(F)F)c1 (centres unmarked) [Example 7, N-[2-(4-Aminophenyl)-1-methylethyl]-2-hydroxy-2-(3-trifluoromethylphenyl) ethanamine] |  | 84 | 182 | 118 | 38.0 |
| COC(=O)CNc1ccc(CC(C)NCC(O)c2cccc(C(F)(F)F)c2)cc1 (centres unmarked) [Example 8, N-[2-(4-Methoxycarbonylmethylaminophenyl)-1-methylethyl] -2-hydroxy-2-(3-trifluoromethylphenyl) ethanamine] | 42 p<0.02% |  | 140 |  | 36.2 |
| CC(Cc1ccc([N+](=O)[O-])cc1)NCC(O)c1cccc(C(F)(F)F)c1 (centres unmarked) [Example 9, N-[2-(4-Nitrophenyl)-1-methylethyl]-2-hydroxy-2-(3-trifluoromethylphenyl) ethanamine] |  | 94 | 112 | 115 | 13.2 |
| CC(Cc1ccc(N(C)C)cc1)NCC(O)c1cccc(C(F)(F)F)c1 (centres unmarked) [Example 10, N-[2-(4-Dimethylaminophenyl]-1-methylethyl]-2-hydroxy-2-(3-trifluoromethylphenvl)ethanamine] |  | 70 | 169 | 125 |  |
| CC(Cc1ccc(N2CCCC2)cc1)NCC(O)c1cccc(C(F)(F)F)c1 (centres unmarked) [Example 11, N-[2-(4-(1-Pyrrolidyl)phenyl)-1-methylethyl] -2-hydroxy-2-(3-trifluoromethylphenyl)ethanamine] |  | 95 | 151 | 112 |  |
| CC(Cc1ccc(N2CCOCC2)cc1)NCC(O)c1cccc(C(F)(F)F)c1 (centres unmarked) [Example 12, N-[2-(4-(4-Morpholino)phenyl)-1-methylethyl]-2-hydroxy-2-(3-trifluoromethylphenyl)ethanamine] |  | 72 | 143 | 121 |  |
| CCOC(=O)C1CCN(c2ccc(CC(C)NCC(O)c3cccc(C(F)(F)F)c3)cc2)CC1 (centres unmarked) [Example 13, N-[2-(4-(1-(4-Carboethoxy)piperidyl)phenyl)-1-methylethyl]-2-hydroxy-2-(3-trifluoromethylphenyl)ethanamine] |  | 95 | 121 | 103 |  |
| CNC(=O)C1CCN(c2ccc(CC(C)NCC(O)c3cccc(C(F)(F)F)c3)cc2)CC1 (centres unmarked) [Example 14, N-[2-(4-(1-(4-N'-Methylcarboxamido)piperidyl)phenyl)-1-methylethyl]-2-hydroxy-2-(3-trifluoromethylphenyl)ethanamine] |  | 106 | 118 | 102 |  |

Reference: patent EP0068669A1, “Secondary phenylethanol amines, processes for their preparation and their pharmaceutical application” (priority 1981, dated 1983)
